Measurements taken from US8580806B2, “Salts of 4-methyl N-[3-(4-methyl-imidazol-1-yl)-5-trifluoromethyl-phenyl]-3-(4-pyridin-3-yl-pyrimidin-2-ylamino)-benzamide” (Novartis AG, priority 2005, dated 2013).
Where a name gives a salt, the structure may show the parent alone.

Key:
Format in all cases: physicochemical
[1] = Hygroscopicity by TGA after one day at ambient temperature and 93% relative humidity; conditions: ambient temperature, listed as Hydrochloride (form B)
Experimental: The hygroscopicity of the salts of the invention was determined by TGA after one day at ambient temperature and 93% relative humidity.

[2] = Stability of solutions or suspensions (Table 15)
[3] = Solid state stability: heat, humidity, xenon light (Table 15)
Bulk corrosivity = conditions: 2 day, 80% relative humidity with steel coupon
[4] = Intrinsic Dissolution Rate (rotating disk method); conditions: Water, 37° C., 200 rpm
Experimental: Intrinsic Dissolution Rate (IDR): Dissolution rate measurements were performed at 37° C. using the rotating disk method (VanKell Instrument). A single rotation speed of 200 rpm was used. For IDR in 0.1 N HCl, an 800 mL volume, and for IDE in water, a 200 mL volume were used. The solution was continuously pumped through a UV measuring cell and recycled to the dissolution vessel.

[5] = pH of 1% solution or suspension in water; conditions: 1% in water
[6] = Decomposition temperature by TGA; conditions: as stated in the description of the embodiments; listed as hydrochloride salt
Experimental: The LOD and decomposition temperature of the salts of the invention were determined by TGA, and the melting point was determined by DSC.

[7] = Hygroscopicity (moisture uptake v. relative humidity); conditions: when first tested
Experimental: Hygroscopicity: Sorption/desorption isotherms were collected using a Surface Measurements Systems dynamic vapor sorption device (DVS-1). The measurements were carried out at 25° C.

[8] = Solid-state behaviour of the hydrochloride salt (equilibration, grinding, compression)
[9] = 0.1% solutions or suspensions, 1 week at 80° C., Acetonitrile
[10] = 0.1% solutions or suspensions, 1 week at 80° C., Ethanol
[11] = 0.1% solutions or suspensions, 1 week at 80° C., Methanol
[12] = 0.1% solutions or suspensions, 1 week at 80° C., Water (pH measured: 4.74; pH measured for HCl salt: 4.22)
[13] = 0.1% solutions or suspensions, 1 week at 80° C., pH 1 (pH measured: 1.26)
[14] = 0.1% solutions or suspensions, 1 week at 80° C., pH 2 (pH measured: 2.00)
[15] = 0.1% solutions or suspensions, 1 week at 80° C., pH 3 (pH measured: 2.94)
[16] = 0.1% solutions or suspensions, 1 week at 80° C., pH 5 (pH measured: 5.01)
[17] = 0.1% solutions or suspensions, 1 week at 80° C., pH 7 (pH measured: 6.02)
[18] = 0.1% solutions or suspensions, 1 week at 80° C., pH 9 (pH measured: 8.92)
[19] = 0.1% solutions or suspensions, 1 week at 80° C., pH 11 (pH measured: 10.86)
[20] = 0.1% solutions or suspensions, PH 1, 1 week @ 50° C.
[21] = 2% solutions or suspensions, 1 day at room temperature, 0.5% CMC
[22] = 2% solutions or suspensions, 1 day at room temperature, 0.5% HPMC cellulose 4000
[23] = 2% solutions or suspensions, 1 day at room temperature, 0.8% Tween 80
[24] = 5% solutions in DMSO, 1 day at room temperature, 1:100 dilution in pH 6.8 buffer
[25] = Solid state, 1 week 80° C., 75% relative humidity, 30% in mixture 1
[26] = Solid state, 1 week 80° C., 75% relative humidity, 30% in mixture 2
[27] = Solid state, 1 week 80° C., 75% relative humidity, Bulk (HPLC)
[28] = Solid state, 1 week 80° C., tight container, 30% in mixture 1
[29] = Solid state, 1 week 80° C., tight container, 30% in mixture 2
[30] = Solid state, 1 week 80° C., tight container, Bulk (HPLC)
[31] = Xenon light (approximately 200 kLuxh), Bulk (HPLC)

Cc1cn(-c2cc(NC(=O)c3ccc(C)c(Nc4nccc(-c5cccnc5)n4)c3)cc(C(F)(F)F)c2)cn1 [Hydrochloride monohydrate (form B), 4-methyl-N-[3-(4-methyl-imidazol-1-yl)-5-trifluoromethyl-phenyl]-3-(4-pyridin-3-yl-pyrimidin-2-ylamino)-benzamide monohydrochloride monohydrate salt]
% moisture gain [1]: 0.20%
Appearance [2, 9]: B↓
Assay [2, 9]: 100.33
Assay [% area]: bracketed % area [2, 9]: 100.00 % area
Appearance [2, 10]: A*
Assay [2, 10]: 100.41
Assay [% area]: bracketed % area [2, 10]: 100.00 % area
Appearance [2, 11]: A*
Assay [2, 11]: 99.169
Assay [% area]: bracketed % area [2, 11]: 98.72 % area
Appearance [2, 12]: A↓
Assay [2, 12]: 101.43
Assay [% area]: bracketed % area [2, 12]: 100.00 % area
Appearance [2, 13]: A*
Assay [2, 13]: 46.68
Assay [% area]: bracketed % area [2, 13]: 42.93 % area
Appearance [2, 14]: B↓
Assay [2, 14]: 91.77
Assay [% area]: bracketed % area [2, 14]: 91.61 % area
Appearance [2, 15]: B↓
Assay [2, 15]: 98.84
Assay [% area]: bracketed % area [2, 15]: 100.00 % area
Appearance [2, 16]: A↓
Assay [2, 16]: 100.02
Assay [% area]: bracketed % area [2, 16]: 100.00 % area
Appearance [2, 17]: B↓
Assay [2, 17]: 99.56
Assay [% area]: bracketed % area [2, 17]: 100.00 % area
Appearance [2, 18]: B↓
Assay [2, 18]: 101.19
Assay [% area]: bracketed % area [2, 18]: 100.00 % area
Appearance [2, 19]: B↓
Assay [2, 19]: 102.19
Assay [% area]: bracketed % area [2, 19]: 100.00 % area
Appearance [2, 20]: A*
Assay [2, 20]: 94.14
Assay [% area]: bracketed % area [2, 20]: 93.21 % area
Appearance [2, 21]: A↓
Assay [2, 21]: 103.06
Assay [% area]: bracketed % area [2, 21]: 100.00 % area
Appearance [2, 22]: A↓
Assay [2, 22]: 100.44
Assay [% area]: bracketed % area [2, 22]: 100.00 % area
Appearance [2, 23]: A↓
Assay [2, 23]: 102.42
Assay [% area]: bracketed % area [2, 23]: 100.00 % area
Appearance [2, 24]: A↓
Assay [2, 24]: 101.85
Assay [% area]: bracketed % area [2, 24]: 100.00 % area
Assay ([2]; Unstressed): 99.10
Assay [% area]: bracketed % area ([2]; Unstressed): 100.00 % area
Bulk (XRPD) ([3]; Solid state, 1 week 80° C., 75% relative humidity): No change
Assay [3, 25]: 100.88
Assay [% area]: bracketed % area [3, 25]: 100.00 % area
Assay [3, 26]: 92.17
Assay [% area]: bracketed % area [3, 26]: 97.99 % area
Assay [3, 27]: 100.71
Assay [% area]: bracketed % area [3, 27]: 100.00 % area
Bulk (XRPD) ([3]; Solid state, 1 week 80° C., tight container): No change
Assay [3, 28]: 101.23
Assay [% area]: bracketed % area [3, 28]: 100.00 % area
Assay [3, 29]: 93.43
Assay [% area]: bracketed % area [3, 29]: 97.82 % area
Assay [3, 30]: 100.77
Assay [% area]: bracketed % area [3, 30]: 100.00 % area
Bulk (XRPD) ([3]; Xenon light (approximately 200 kLuxh)): No change
Assay [3, 31]: 99.73
Assay [% area]: bracketed % area [3, 31]: 100.00 % area
Bulk corrosivity (Bulk corrosivity): No change
Intrinsic dissolution rate [4]: 0.0024 mg min^−1 cm^−2
pH of 1% solution or suspension in water [5]: 2.53
decomposes at [6]: about 173 °C
moisture uptake ([7]; 60% relative humidity): up to 2%
moisture uptake ([7]; 95% relative humidity): up to 2.7%
behaviour upon compression ([8]; compression): can withstand compression
behaviour upon grinding ([8]; grinding): becomes amorphous
